Experiments:
h-GABA-A α5β3γ2 [1] = molecular target: T1, h-GABA-A α5β3γ2 (Homo sapiens, UniProt P18507+P31644); test: Two-electrode voltage clamp electrophysiology in Xenopus laevis oocytes expressing GABAA receptors, modulation of GABA EC20 current; type: cell-based; design: host or cells: Xenopus laevis oocytes micro-injected with RNA transcripts of the subunits; details: Table 1; for Efficacy (GABA) %: % modulation of GABA EC20 = 100*(Fold increase-1); for Fold increase h-GABA-A α5β3γ2 oocyte: test compound at approx. 30 fold its Ki, GABA at EC20
Method in brief: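 Human α5β3γ2 GABAA receptors were expressed in Xenopus oocytes by RNA injection, with γ2 RNA 5–10-fold higher, and recorded 3–5 days later by two-electrode voltage clamp at −80 mV at room temperature. The test compound, at about 30× its Ki, was co-applied during a second GABA EC20 pulse. Efficacy is the extremum of the point-by-point ratio to the first response, expressed as 100*(Fold increase−1).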

h-GABA-A α5β3γ2 [2] = molecular target: T1, h-GABA-A α5β3γ2; test: [3H]flumazenil competition binding assay, membranes of HEK293 cells expressing GABAA receptors; details: displacement of [3H]-Flumazenil 0.5 nM, HEK293 cells expressing human receptors, mean of two determinations; Table 1
Method in brief: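 Membranes from HEK293 cells transiently expressing human α5β3γ2 GABAA receptors, in Krebs-tris buffer pH 7.5, competed against [3H]flumazenil for 1 hour at 4° C to equilibrium. Bound radioactivity collected on GF/C filters and counted by liquid scintillation; Ki values are means of two determinations.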

Efficacy (GABA) % (h-GABA-A α5β3γ2 [1]) [%]	Fold increase h-GABA-A α5β3γ2 oocyte (h-GABA-A α5β3γ2 [1])	Ki (h-GABA-A α5β3γ2 [2]) [nM]	Compound
149	2.49	2	Cc1ccc(-c2noc(C)c2Cn2ncc(N3CCC4(CCCCO4)CC3)cc2=O)nn1 [Example 302, 2-[[5-methyl-3-(6-methylpyridazin-3-yl)isoxazol-4-yl]methyl]-5-(1-oxa-9-azaspiro[5.5]undecan-9-yl)pyridazin-3-one]
121	2.21	17.8	Cc1ccc(-c2noc(C)c2Cn2ncc(N3CC4(C[C@@H](OC(F)F)CO4)C3)cc2=O)cn1 [Example 203, 5-[(7R)-7-(difluoromethoxy)-5-oxa-2-azaspiro[3.4]octan-2-yl]-2-[[5-methyl-3-(6-methyl-3-pyridyl)isoxazol-4-yl]methyl]pyridazin-3-one]
67	1.67	1	Cc1ccc(-c2noc(C)c2Cn2ncc(N3CC(OC4CC4)C3)cc2=O)nn1 [Example 239, 5-[3-(cyclopropoxy)azetidin-1-yl]-2-[[5-methyl-3-(6-methylpyridazin-3-yl)isoxazol-4-yl]methyl]pyridazin-3-one]
110	2.1	15.8	Cc1ccc(-c2noc(C)c2Cn2ncc(N3CC4(CC(F)CCO4)C3)cc2=O)cn1 (single isomer, unassigned) [Example 274]
137	2.37	28.7	COc1ncc(-c2cnn(Cc3c(-c4ccc(C)nc4)noc3C)c(=O)c2)cc1F [Example 183, 5-(5-fluoro-6-methoxypyridin-3-yl)-2-((5-methyl-3-(6-methylpyridin-3-yl)isoxazol-4-yl)methyl)pyridazin-3(2H)-one]
93	1.93	3	Cc1ccc(-c2noc(C)c2Cn2ncc(N3CC(OC(C)(C)C(F)(F)F)C3)cc2=O)nn1 [Example 264, 2-[[5-methyl-3-(6-methylpyridazin-3-yl)isoxazol-4-yl]methyl]-5-[3-(2,2,2-trifluoro-1,1-dimethyl-ethoxy)azetidin-1-yl]pyridazin-3-one]
226	3.26	24.8	Cc1ccc(-c2noc(C)c2Cn2ncc(N3CC4(CCC(C(F)(F)F)CO4)C3)cc2=O)nn1 (single isomer, unassigned) [Example 320]
124	2.24	12.8	Cc1onc(-c2ccc(Cl)nc2)c1Cn1ncc(N2CC(OC3CC3)C2)cc1=O [Example 224, 2-((3-(6-chloropyridin-3-yl)-5-methylisoxazol-4-yl)methyl)-5-(3-cyclopropoxyazetidin-1-yl)pyridazin-3(2H)-one]
119	2.19	27.2	CCOc1ccc(-c2cnn(Cc3c(-c4ccc(C)nc4)noc3C)c(=O)c2)cn1 [Example 151, 5-(6-ethoxypyridin-3-yl)-2-((5-methyl-3-(6-methylpyridin-3-yl)isoxazol-4-yl)methyl)pyridazin-3(2H)-one]
65	1.65	2.6	Cc1onc(-c2ncc(C(F)(F)F)cn2)c1Cn1ncc(N2CC3(CCC(F)CO3)C2)cc1=O (single isomer, unassigned) [Example 332]
134	2.34	15.7	Cc1ccc(-c2noc(C)c2Cn2ncc(N3CC(F)C3)cc2=O)cn1 [Example 181, 5-(3-fluoroazetidin-1-yl)-2-[[5-methyl-3-(6-methyl-3-pyridyl)isoxazol-4-yl]methyl]pyridazin-3-one]

Second part, the molecule before the results:

Compound	Efficacy (GABA) % (h-GABA-A α5β3γ2 [1]) [%]	Fold increase h-GABA-A α5β3γ2 oocyte (h-GABA-A α5β3γ2 [1])	Ki (h-GABA-A α5β3γ2 [2]) [nM]
Cc1onc(-c2ccc(F)cc2)c1Cn1ncc(N2C[C@@H](C)O[C@@H](C)C2)cc1=O [Example 12, 5-(cis-2,6-Dimethylmorpholino)-2-((3-(4-fluorophenyl)-5-methylisoxazol-4-yl)methyl)pyridazin-3(2H)-one]	114	2.14	3.8
Cc1ccc(-c2noc(C)c2Cn2ncc(-c3cncc(Cl)c3)cc2=O)cn1 [Example 148, 5-(5-chloro-3-pyridyl)-2-((5-methyl-3-(6-methyl-3-pyridyl)isoxazol-4-yl)methyl)pyridazin-3-one]	248	3.48	8.4
Cc1ccc(-c2nocc2Cn2ncc(N3C[C@@H](C)O[C@@H](C)C3)cc2=O)cn1 [Example 32, 5-(cis-2,6-dimethylmorpholin-4-yl)-2-[[3-(6-methyl-3-pyridyl)isoxazol-4-yl]methyl]pyridazin-3-one]	288	3.88	12.7
Cc1onc(-c2ccc(Cl)cn2)c1Cn1ncc(N2CC(OCC3CC3)C2)cc1=O [Example 143, 2-((3-(5-Chloropyridin-2-yl)-5-methylisoxazol-4-yl)methyl)-5-(3-(cyclopropylmethoxy)azetidin-1-yl)pyridazin-3(2H)-one]	68	1.68	3.3
CC(=O)N(C)[C@H]1CCN(c2cnn(Cc3c(-c4ccc(C)nc4)noc3C)c(=O)c2)C1 [Example 1, N-methyl-N-[(3S)-1-[1-[[5-methyl-3-(6-methyl-3-pyridyl)isoxazol-4-yl]methyl]-6-oxo-pyridazin-4-yl]pyrrolidin-3-yl]acetamide]	63	1.63	10.2
Cc1ccc(-c2noc(C)c2Cn2ncc(-c3ccc(C(F)(F)F)cc3)cc2=O)cn1 [Example 83]	50	1.5	17.2
Cc1ccc(-c2noc(C)c2Cn2ncc(N3CC4(C3)CN(C3CC3)C4)cc2=O)cn1 [Example 58, 5-(2-cyclopropyl-2,6-diazaspiro[3.3]heptan-6-yl)-2-[[5-methyl-3-(6-methyl-3-pyridyl)isoxazol-4-yl]methyl]pyridazin-3-one]	209	3.09	70.4
Cc1ccc(-c2noc(C)c2Cn2ncc(-c3ccccc3)cc2=O)cn1 [Example 67, 2-((5-methyl-3-(6-methylpyridin-3-yl)isoxazol-4-yl)methyl)-5-phenylpyridazin-3(2H)-one]	107	2.07	10.5
Cc1ccc(-c2noc(C)c2Cn2ncc(N3CC[C@@H](OC(C)(C)C)C3)cc2=O)nn1 [Example 261, 5-[(3R)-3-tert-butoxypyrrolidin-1-yl]-2-[[5-methyl-3-(6-methylpyridazin-3-yl)isoxazol-4-yl]methyl]pyridazin-3-one]	77	1.77	3.6
Cc1ccc(-c2noc(C)c2Cn2ncc(N3CC(Oc4ccnc(Cl)c4)C3)cc2=O)cn1 [Example 147, 5-[3-[(2-chloro-4-pyridyl)oxy]azetidin-1-yl]-2-[[5-methyl-3-(6-methyl-3-pyridyl)isoxazol-4-yl]methyl]pyridazin-3-one]	170	2.7	12

Reference: patent US11840528B2 (Hoffmann-La Roche Inc., priority 2018, dated 2023)
